Laboratory results from patent publication US9968624B2, “Depression treatment agent” (THE UNIVERSITY OF TOKYO, priority 2014, dated 2018).

Assays:
[1] = test system: mice (C57BL/6 strain, male); assay: Forced swim test (5S-ManNAcF intracerebroventricular administration, one week); assay type: in vivo, mouse
Method: Similar to Example 3, 5S-ManNAcF (0.01, 0.1, 1 mmol/L administration group: each 9-10 mice) was administered intracerebroventricularly. The dosing period was one week. The mice of the control group in the same age in weeks were administered with saline (control group: each 9-10 mice, SAL).
A forced swim test similar to that in Example 1 was performed at 1 week after administration.

[2] = test system: mice (C57BL/6 strain, male); assay: Forced swim test (5S-ManNAcF, ManNAc, intracerebroventricular administration, 3 weeks); assay type: in vivo, mouse; conditions: 0.1 mmol/L in saline, intracerebroventricular by osmotic pump for 3 weeks, vs saline
Method: Using 8-9-week-old mice (C57BL/6 strain, male) having a catheter transplanted in the cerebroventricle, and carrying a connected osmotic pump (0.11 μl/hr, Alzet, No1004, 100 μl is released in 28 days) on the back, 5S-ManNAcF (0.01, 0.1 mmol/L) or ManNAc (100 mmol/L) dissolved in saline was intracerebroventricularly administered for 3 weeks (administration group: each 9-10 mice). The mice of the control group in the same age in weeks were administered with saline (control group: each 9-10 mice, SAL).
A forced swim test similar to that in Example 1 was performed at 3 weeks after administration.

[3] = test system: mice (C57BL/6 strain, male); assay: Forced swim test (ManNAc oral administration); assay type: in vivo, mouse; conditions: juvenile mice (10- to 14-week-old), 5 mg/ml in drinking water for 4 weeks, 6 min test; control group about 2 min
Method: ManNAc was dissolved in drinking water, and drinking water having a concentration of 5 mg/ml was administered to juvenile mice (C57BL/6 strain, male) by administration by free drinking of water for 4 weeks in total from 10-week-old to 14-week-old (ManNAc administration group: 16 mice). The mice of the control group in the same age in weeks were allowed to take drinking water freely (control group: 16 mice).
Similarly, 5 mg/ml ManNAc-containing drinking water was administered to aged mice (C57BL/6 strain, male) by administration by free drinking of water for 4 weeks in total from […] (ManNAc administration group: 14 mice). The mice of the control group in the same age in weeks were allowed to take drinking water freely (control group: 15 mice).
According to the method described in S. C. […] The mice were graded with regard to 4 evaluation criteria: swimming, immobility, climbing, and others, and a dominant behavior was recorded every 5 sec. […]
When a mouse is forcibly placed in a water pool, it tries to swim to the shore. […] The forced swim test for 6 min enables quantification of immobility in a water tank, and the immobility has been proposed to be similar to “behavioral despair”, observed in depression.

[4] = test system: juvenile mice (C57BL/6 strain, male); assay: Social defeat test; assay type: in vivo, mouse; conditions: defeat stress experience mice, 5 mg/ml in drinking water for 4 weeks, latter 3 min of 5 min
Method: Under conditions similar to those in Example 1, ManNAc was administered to juvenile mice (C57BL/6 strain, male) by administration by free drinking of water for 4 weeks in total from 10-week-old to 14-week-old (ManNAc administration group: 14 mice). The mice of the control group in the same age in weeks were allowed to take drinking water freely (control group: 14 mice).
A mouse that lived with a more aggressive mouse (aggressive mouse) for a given period (1 hr) stays away from the aggressive mouse thereafter. This test method reflects higher brain functions, and was developed as a social defeat test and widely utilized as a system for evaluating social anxiety (Nature (2008) 455, 894-902). The ManNAc administration group and the control group were made to stay together with an aggressive mouse (one-to-one) for 1 hr per day, and the defeat stress was imposed for 5 days. […] The number of times the defeat stress experience mouse intruded a contact zone formed on the periphery of the compartment in which the aggressive mouse was housed, and the sniffing time of the defeat stress experience mouse were measured in the latter 3 minutes of 5 minutes. […]

[5] = test system: mice (BALB/c and C57BL/6 strains); conditions: BALB/c strain, fluoxetine 10 mg/kg/day; drug non-administration group about 125-130 sec; cited from earlier work

SMILES: O=C(CF)NC1C(O)SC(CO)[C@@H](O)C1O (stereo partly drawn) [5S-ManNAcF]
- total immobilization time as compared to the control group ([1]; 0.1 mmol/L in saline, intracerebroventricular by osmotic pump for one week, vs saline): significantly decreased
- effect on total immobilization time, comparison of concentrations ([1]; 0.1 mmol/L vs 1 mmol/L, intracerebroventricular for one week): tendency of a higher effect at a concentration of 0.1 mmol/L than a high dose of 1 mmol/L
- total immobilization time as compared to the control group [2]: significantly decreased

SMILES: CC(=O)N[C@@H]1C(O)O[C@H](CO)[C@@H](O)[C@@H]1O (stereo partly drawn) [ManNAc, N-acetyl-D-mannosamine]
- total immobilization time [3]: about 1 min
- contact zone intrusion number [4]: a significant difference was not found
- sniffing time (sniffing behavior) ([4]; water group about 20 sec or below, stress non-experience group about 30 sec): about 30 sec

SMILES: CNCCC(Oc1ccc(C(F)(F)F)cc1)c1ccccc1 (stereo not shown) [fluoxetine]
- immobilization time [5]: about 100 sec
